From a melting point compilation (Tetko et al.; mined from patent text by program, amines drawn as free bases though some values may be those of a salt)

Work on `CCC(C)NC(=O)C1=C(C(=O)Nc2cc(OC3CCCC3)c(Cl)cc2F)CCCC1` (stereo not drawn) yielded a melting point of 174 to 175 °C.
`CC(C)C[C@H](NC(=O)OCc1ccccc1)C(=O)N[C@@H](CC(N)=O)C(=O)NC(Cc1ccccc1)C(O)C(Cc1ccccc1)NC(=O)OC(C)(C)C` (stereo partly drawn) showed a melting point of 192 to 194 °C.
`CC(=O)Nc1ccc(SCCCCNS(=O)(=O)c2ccc(C)cc2)cc1` gave a melting point of 104 to 105 °C.
Work on `CC(C)(C)C(=O)COc1nn(CC=C(Cl)Cl)c(-c2ccc(S(C)(=O)=O)cc2)c1-c1ccc(F)cc1` yielded a melting point of 156 to 158 °C.
With `Cc1cccc(NC(=N)Nc2cccc(C)c2)c1` the melting point was 105 to 106 °C.
`O=c1[nH]c2cc(Cl)ccc2c(O)c1-c1ccc(I)cc1` gave a melting point greater than 350 °C.
`O=c1[nH]c2cnc(-c3ccccc3)nc2n1Cc1ccccc1` gave a melting point of 286 to 287 °C.
With `Nc1ccc(-c2cnc(CSCCOc3ccccc3)o2)cc1` the melting point was 110 to 111 °C.
`CS(=O)CCNC(=O)CC(O)(Cn1cncn1)c1ccc(Cl)cc1Cl` (stereo not drawn) gave a melting point of 168 to 170 °C.
Compound `CC(Oc1cccc(C=Cc2ccc3ccc(Cl)cc3n2)c1)C(=O)O` (single isomer, unassigned; (-)) has a melting point of 103 to 105 °C.
`Cc1cc(Nc2ccnc(Nc3ccc(S(=O)(=O)N(C)C4CCN(Cc5cnn(C)c5)CC4)cc3)n2)ccc1F` gave a melting point of 125 to 150 °C.
For `CC(=O)c1ccc(S(=O)(=O)Nc2ccc(C(F)(F)F)cn2)cc1`, the melting point was 179 to 180 °C.
`COc1cc(C(=O)Nc2nc(C)c(C(=O)NCc3ccccc3)s2)ccn1` showed a melting point of 188 to 190 °C.
`N#CCCn1c(=N)sc2cc(OC(F)(F)F)ccc21` gave a melting point of 180 °C.
Work on `CCC1(CCCN2CCc3sccc3C2)C(=O)Nc2ccc(Cl)cc21` (stereo not drawn) yielded a melting point of 66 to 69 °C.
With `Oc1cccc2c1CC1CNCC2C1` (stereo not drawn) the melting point was 106 to 108 °C.
For `O=C1NC(=O)C(=Cc2csc(NC(c3ccccc3)(c3ccccc3)c3ccccc3)n2)S1`, the melting point was 225 to 228 °C.
For `O=C(c1ccccc1)c1ccc(C(=O)c2ccc(C(=O)c3ccccc3)cc2)cc1`, the melting point was 224 to 228 °C.
For `O=C1c2ccccc2C(=O)N1OC1CCCCCC1`, the melting point was 110 to 112 °C.
`CCCCC(CC)Cn1c(C)cc(C)c(C(=O)O)c1=O` (stereo not drawn) showed a melting point of 89 to 91 °C.
`O=C(c1cccc(Nc2ncnc3ccccc23)c1)N1CCN(c2ncc(Cc3ccccc3)cn2)CC1` gave a melting point of 120 to 122 °C.
For `CCc1nc2c(N)nc3cc(OCc4ccccc4)ccc3c2s1`, the melting point was 208 to 209 °C.
`COC(=O)c1cnc(S)n1C1CCSc2ccccc21` (stereo not drawn) showed a melting point of 163 °C.
For `CC(C)(C)c1ccc(-c2ccc3c(c2)C=C(C(=O)O)CCO3)cc1`, the melting point was 259 to 261 °C.
`CC(C)(C)c1cc(NC(=O)Nc2ccc(Cl)c(Cl)c2)[nH]n1` showed a melting point of 178 to 179 °C.
Work on `CCCCc1nc2cccc(C(=O)OC)c2n1Cc1ccc(-n2c(C)ccc2C#N)cc1` yielded a melting point of 131 to 132 °C.
In the case of `CN1C(=O)C2=C(c3ccccc3)N(C)C(=O)C2=C1c1ccccc1`, the melting point is reported as 236 to 238 °C.
`COc1c(C)c(C)c2c(c1C)CC(CC(=O)O)O2` (racemic) gave a melting point of 74 to 76 °C.
`O=C(Nc1nc(C(Cl)(Cl)Cl)ns1)C(Cl)(Cl)Cl` gave a melting point of 158 °C.
With `CC(=O)NC(=O)Nc1ccc(OS(=O)(=O)c2cccc(C(F)(F)F)c2)cc1[N+](=O)[O-]` the melting point was 196 °C.
Compound `CC(=O)N=NCc1ccc(OCCCCCOc2ccc(C(=O)N(C(C)C)C(C)C)c(Cl)c2)cc1` has a melting point of 59 to 61 °C.
For `CCOc1cc(Oc2ccc(S(C)(=O)=O)nc2)cc2cc(C3=NCC(CCO)S3)[nH]c12` (stereo not drawn), the melting point was 147 to 148 °C.
`Nc1cccc2c1C(=O)c1c(O)cccc1C2=O` gave a melting point of 305 to 308 °C.
With `CC(=O)c1ccc(S(=O)(=O)C[N+](=O)[O-])cc1` the melting point was 94 to 95 °C.
Compound `N#CCCN1CCC(COC(=O)c2cc(Cl)c(N)c3c2OCCO3)CC1` has a melting point of 101 to 103 °C.
Compound `CS(=O)(=O)Nc1cccc(S(=O)(=O)N2CCC(Nc3nc(Nc4cccc(C(F)(F)F)c4)nc(OCC(F)(F)F)n3)CC2)c1` has a melting point of 249 to 251 °C.
Compound `O=C(O)C(CNC(=O)C1Cc2ccccc2N1S(=O)(=O)c1ccc(-c2cccc(C(F)(F)F)c2)cc1)Cc1ccccc1` (stereo not drawn) has a melting point of 85 to 90 °C.
For `C=CCNC(=O)c1cc(CCc2cc3c(s2)-n2c(C)nnc2CN=C3c2ccccc2Cl)ccc1CC(=O)Nc1cccc(/C=C/c2nc(C3CCC3)cs2)c1`, the melting point was 127 to 132 °C.
In the case of `CN(C)CCOCc1ccc2[nH]nc(S(=O)(=O)c3cccc4ccccc34)c2c1`, the melting point is reported as greater than 200 °C.
`CNC(=S)Nc1ccccc1-c1nc(C)c(-c2cccnc2)[nH]1` gave a melting point of 192 to 193 °C.
`COc1ccc(C2CCC(=O)Nc3ccccc3C2=O)cc1` (stereo not drawn) showed a melting point of 244 to 245 °C.
In the case of `CCCCCNC(=S)CC(=O)O`, the melting point is reported as 72 to 76 °C.
In the case of `COC(=O)c1ccc(C(=O)NC(C)C)cc1S(=O)(=O)NC(C)(C)C`, the melting point is reported as 159 to 160 °C.
With `Fc1ccc(Cn2c(NC3CCN(CCNc4nc5ccccc5[nH]4)CC3)nc3ccccc32)cc1` the melting point was 253 °C.
`CCCNC(=O)C1(CCCCN2CCC(N3Cc4ccccc4C3=O)CC2)c2ccccc2-c2cccnc21` (stereo not drawn) showed a melting point of 52 to 54 °C.
With `Oc1ccc(Oc2cnc3ccccc3c2)cc1` the melting point was 250 °C.
`CN1CC=C(c2cccc3ccc(N(Cc4ccccc4)Cc4ccccc4)cc23)CC1` showed a melting point of 124 to 126 °C.
With `O=c1[nH]c(N[N+](=O)[O-])ncc1Cc1cccnc1` the melting point was 214 to 216 °C.
With `COc1ccc(-c2cnn(-c3ccc(N4C[C@H](CNC(C)=O)OC4=O)cc3F)c2)cc1` the melting point was 226 to 228 °C.
`CCC(C)(CC)C(=O)N[C@H]1C[C@@H]2c3cccc4[nH]c(C)c(c34)C[C@H]2N(C)C1` gave a melting point of 191 to 192 °C.
For `CCc1cc(-c2nc(C)c(-c3ccnc(Nc4ccc(N5CCOCC5)cc4)n3)s2)ccn1`, the melting point was 214 to 215 °C.
In the case of `CCOC(=O)C(=O)CSc1ccc(-c2ccccc2)cc1`, the melting point is reported as 154 to 156 °C.
In the case of `CCOC(=O)c1cnn(-c2ccccc2N)c1O`, the melting point is reported as 151 to 154 °C.
For `COC(=O)c1cc2c([nH]c1=O)CCCCCC2`, the melting point was 220 to 224 °C.
For `Cc1nc(N2CCN(CC3CCC3)C2=O)sc1C(=O)NCc1cccnc1`, the melting point was 136 to 137 °C.
Work on `CCOC(=O)CC1(S(N)(=O)=O)c2ccccc2-c2ccc(Cl)cc21` (stereo not drawn) yielded a melting point of 246 to 248 °C.
`O=C(O)C1c2cc(Br)ccc2COc2ccc(Br)cc21` (stereo not drawn) gave a melting point of 179 to 182 °C.
`Cc1[nH]n(C2CCCC2O)c2nc(-c3ccncc3)nc(=O)c1-2` (stereo not drawn) gave a melting point of 281 to 283 °C.
For `Nc1sc2c(c1C(=O)c1ccsc1)CCC2`, the melting point was 125 to 127 °C.
With `O=C(O)CCCCc1ccc2ccccc2c1OCc1ccccc1` the melting point was 70 to 77 °C.
With `O=C1c2ccccc2SCN1CCO[N+](=O)[O-]` the melting point was 68 to 69 °C.
In the case of `CC(=O)Cc1ccc(C#CC(C)(C)O)cc1`, the melting point is reported as 67 to 69 °C.
With `CCC1(CC(=O)O)OCCc2c1[nH]c1ccccc21` (stereo not drawn) the melting point was 135 to 136 °C.
With `CN1C[C@H](CCN2CCN(C(c3ccccc3)c3ccccc3)CC2)C[C@@H]2c3cccc4[nH]cc(c34)C[C@H]21` the melting point was 206 to 212 °C.
In the case of `COC(=O)C(Cc1ccc(OCCn2c(=O)sc3cc(Cc4ccc(-c5ccccc5)cc4)ccc32)cc1)C(=O)OC`, the melting point is reported as 122 °C.
Work on `NS(=O)(=O)OCCOc1cccc(OCCOS(N)(=O)=O)c1` yielded a melting point of 147 to 149 °C.
`COc1cc2cc(C(=O)Nc3cc(OCc4ccccc4)c4ccccc4c3CCCl)[nH]c2c(OC)c1OC` showed a melting point of 180 to 184 °C.
In the case of `COC(=O)c1cccc2c(C)c(C)oc12`, the melting point is reported as 54.5 to 55.5 °C.
Work on `CCOP(=O)(OCC)C(CC(NC(=O)OC(C)(C)C)C(=O)c1ccccc1)P(=O)(OCC)OCC` (stereo not drawn) yielded a melting point of 56 to 57 °C.
`N=C(NO)c1ccc(-c2ccc(-c3nc4cc(C(=N)NO)ccc4[nH]3)c(F)c2)cc1` showed a melting point of 281 to 283 °C.
`CCCCCCCCCCNC(=O)CCCOCCO` gave a melting point of 48 °C.
`CCOC(=O)c1cnc(SC)nc1NCc1ccc(OC)c(Cl)c1` gave a melting point of 82 to 83 °C.
`CC(C)c1ccc(C2c3cc(NCc4ccccc4)ccc3OC2(C)C)cc1` (stereo not drawn) gave a melting point of 85 to 86 °C.
With `Cc1[nH]cnc1CN1CCc2c(c3cccc(F)c3n2C)C1=O` the melting point was 230 to 233 °C.
`COc1ccc(N(C=C(C#N)C#N)CCC#N)cc1` gave a melting point of 175 to 177 °C.
`COC(=O)C(Oc1ccc(C23CC4CC(CC(C4)C2)C3)cc1)c1ccc(Oc2ccc(Cl)cc2)cc1` (stereo not drawn) gave a melting point of 148 to 150 °C.
`O=c1oc2ccc(Cl)cc2c(Cl)c1Cl` gave a melting point of 133 to 135 °C.
`CCOC(=O)c1cn(CC)c2cc(N3CCN(C)CC3)ncc2c1=O` showed a melting point of 176 to 177 °C.
For `C#CCC(CC#C)(C(=O)NO)S(=O)(=O)c1ccc(OC)cc1`, the melting point was 156 °C.
`CC(C)C1=C(C#N)C(c2cccc(C#N)c2Br)c2c[nH]nc2N1` (stereo not drawn) gave a melting point greater than 250 °C.
For `CCCC(=O)N[C@H]1C[C@H](C(=O)OC)Nc2cc(Cl)cc(Cl)c21` (relative stereo), the melting point was 205 to 206 °C.
With `NC(=O)c1ccc(OC2CCN(c3ccncc3)C2)cc1` (stereo not drawn) the melting point was 298 to 300 °C.
Compound `CCCOc1ccc(N)cc1C1=NC(=O)C2=NN=NC2=N1` has a melting point of 225 to 227 °C.
`O=c1[nH]cnc2cc(Br)sc12` gave a melting point of 238 to 240 °C.
Compound `COc1ccc(Cn2c(Cl)nc3c(Cl)ncnc32)cc1` has a melting point of 110 to 112 °C.
In the case of `O=C(O)c1cn(C2CC2)c2c(F)c(N3CCCC(n4ccnn4)C3)c(F)cc2c1=O` (stereo not drawn), the melting point is reported as 239 to 240 °C.
`Cc1ccc2c(c1)c1cc(Br)ccc1n2C(=O)OC(C)(C)C` showed a melting point of 96 °C.
`Cc1cc(OCCC#Cc2ccc(OC(F)(F)F)cc2)ccc1OC(C)(C)C(=O)O` gave a melting point of 62 to 71 °C.
Compound `NS(=O)(=O)c1cccnc1OCC1CC1` has a melting point of 121 to 122 °C.
`O=C(NCCO)c1csc(C(=O)NCCO)n1` showed a melting point of 155 to 158 °C.
`CCCCc1nc2c(N)nc3ccccc3c2n1CCN` showed a melting point of 196 to 199 °C.
For `O=C(O)CN(CC(=O)O)C(=O)c1cc(OCCCCCCOc2ccc(-c3ccccc3)cc2)ccc1OCc1ccccc1`, the melting point was 98 to 100 °C.
In the case of `COc1cc(CCC(=O)O)ccc1OCc1sc(-c2ccc(C(F)(F)F)cc2)nc1C`, the melting point is reported as 150 to 152 °C.
Work on `CN1Cc2cncn2-c2cccnc2C1=O` yielded a melting point of 199 to 201 °C.
In the case of `CCCOc1ccccc1-c1nc2n(C(C)(C)C)[nH]cc-2c(=O)n1`, the melting point is reported as 130 to 131 °C.
With `COC(=O)C1C(=O)CCC1CC#N` (stereo not drawn) the melting point was 49 to 50 °C.
With `CC1(C)OC(c2ccc(S(N)(=O)=O)c(Cl)c2)=C(c2ccccc2)C1=O` the melting point was 193 to 194 °C.
Work on `CCN(CC)CCC1CCCN(C(=O)N2c3ccccc3NC(=O)c3cccnc32)C1` (stereo not drawn) yielded a melting point of 110 to 113 °C.
